Reference: PubChem BioAssay (NCI)
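Values below derive from 48-hour exposures of cells grown in 96-well plates, with endpoints linearly interpolated between the two concentrations bracketing the appropriate inhibition level. GI50 is the concentration that inhibits growth by half. TGI is the concentration that stops growth completely.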

How the values were obtained:
Experiment in all cases: inhibition of tumour cell growth, NCI panel, 48 h
OVCAR-3 ovarian = system: OVCAR-3 ovarian
BT-549 breast = system: BT-549 breast
NCI-H23 lung = system: NCI-H23 lung
HOP-92 NSCLC = system: HOP-92 NSCLC
HOP-62 NSCLC = system: HOP-62 NSCLC
MDA-MB-435 = system: MDA-MB-435
SN12C renal = system: SN12C renal
SNB-19 CNS = system: SNB-19 CNS
UO-31 renal = system: UO-31 renal
MDA-MB-231 breast = system: MDA-MB-231 breast
HCC-2998 colon = system: HCC-2998 colon
MALME-3M melanoma = system: MALME-3M melanoma
U251 CNS = system: U251 CNS
A549 NSCLC = system: A549 NSCLC
NCI-H226 lung = system: NCI-H226 lung
HL-60(TB) leukemia = system: HL-60(TB) leukemia
RPMI-8226 leukemia = system: RPMI-8226 leukemia

Row | Compound | TGI (OVCAR-3 ovarian) | TGI (BT-549 breast) | TGI (NCI-H23 lung) | TGI (HOP-92 NSCLC) | TGI (HOP-62 NSCLC) | TGI (MDA-MB-435) | TGI (SN12C renal) | TGI (SNB-19 CNS) | TGI (UO-31 renal) | TGI (MDA-MB-231 breast) | TGI (HCC-2998 colon) | TGI (MALME-3M melanoma) | TGI (U251 CNS) | TGI (A549 NSCLC) | TGI (NCI-H226 lung) | TGI (HL-60(TB) leukemia) | TGI (RPMI-8226 leukemia) | GI50 (OVCAR-3 ovarian) | GI50 (SN12C renal)
1 | O=C(Nc1ccccc1C(=O)O)/C(=C/c1ccccc1)NC(=O)c1ccccc1 | > 100 µM | > 100 µM | > 100 µM | > 100 µM | > 100 µM | > 100 µM | > 100 µM | > 100 µM | > 100 µM | > 100 µM | > 100 µM | > 100 µM | > 100 µM | > 100 µM | > 100 µM | > 100 µM | > 100 µM | – | –
2 | CC(=O)Nc1cc2c(cc1O)CC[C@@H]1[C@@H]2CC[C@]2(C)[C@@H](O)CC[C@@H]12 | > 100 µM | 86.3 µM | > 100 µM | > 100 µM | > 100 µM | 50.8 µM | > 100 µM | > 100 µM | 97.9 µM | > 100 µM | 82.4 µM | > 100 µM | > 100 µM | > 100 µM | > 100 µM | > 100 µM | > 100 µM | 9.2 µM | 48.5 µM
3 | CC(=O)OCC12C(OC(C)=O)C[C@@H](C)C3(CC(c4ccoc4)OC3=O)C1CCC(O)C21CO1 (stereo not given in full) | > 100 µM | > 100 µM | > 100 µM | > 100 µM | > 100 µM | > 100 µM | > 100 µM | > 100 µM | > 100 µM | > 100 µM | > 100 µM | > 100 µM | > 100 µM | > 100 µM | > 100 µM | > 100 µM | > 100 µM | – | –
4 | CCOC(=O)c1cc(C2CCN(Cc3ccccc3)C2=O)c(C(=O)C(=[N+]=[N-])C(C)=O)[nH]1 (stereo not given) | > 100 µM | > 100 µM | > 100 µM | > 100 µM | > 100 µM | > 100 µM | > 100 µM | > 100 µM | > 100 µM | > 100 µM | > 100 µM | > 100 µM | > 100 µM | > 100 µM | > 100 µM | > 100 µM | > 100 µM | – | –
5 | CCN(CC)Cc1nc(C2CCC([N+](=O)[O-])O2)no1 (stereo not given) | 56.7 µM | 56.7 µM | 41.7 µM | > 100 µM | 82.7 µM | 35.7 µM | > 100 µM | 87.8 µM | > 100 µM | > 100 µM | 42.4 µM | 30.1 µM | 62.3 µM | > 100 µM | > 100 µM | 40.5 µM | > 100 µM | – | –
6 | CCOC(=O)C(=O)N=Nc1nc2c(O)c3ccccc3c(O)c2s1 | 4.07 µM | 22.9 µM | 4.91 µM | 23.1 µM | 24.7 µM | 3.15 µM | 3.46 µM | 28.9 µM | 6.12 µM | 12.7 µM | 28.6 µM | 3.48 µM | 14.1 µM | 17.6 µM | 30.2 µM | > 100 µM | > 19.9 µM | – | –
7 | CC(C)(C)OC(=O)NC(Cc1cnc[nH]1)C(=O)N1CCCC1C(N)=O (stereo not given) | > 100 µM | > 100 µM | > 100 µM | > 100 µM | > 100 µM | > 100 µM | > 100 µM | > 100 µM | > 100 µM | > 100 µM | > 100 µM | > 100 µM | > 100 µM | > 100 µM | > 100 µM | > 100 µM | > 100 µM | – | –
8 | CCCN(CCCCN1C(=O)c2ccccc2C1=O)CC1COc2ccccc2O1 (stereo not given) | > 100 µM | > 100 µM | > 100 µM | > 100 µM | > 100 µM | > 100 µM | > 100 µM | > 100 µM | > 100 µM | > 100 µM | > 100 µM | > 100 µM | > 100 µM | > 100 µM | > 100 µM | 95.9 µM | 84.9 µM | – | –
9 | CCN(CC)C(=S)SC1CCOP(=O)(N(CCCl)CCCl)N1C (stereo not given) | > 100 µM | > 100 µM | > 100 µM | 43.9 µM | > 100 µM | > 100 µM | 46 µM | > 100 µM | > 96.4 µM | > 100 µM | > 68.7 µM | 45.9 µM | > 52.5 µM | > 100 µM | > 97.3 µM | 32.2 µM | > 61.2 µM | – | –
10 | CCCC(=O)OC[n+]1cccc(-c2c(COC(=O)NC(C)C)c(COC(=O)NC(C)C)c3n2CCC3)c1 | > 100 µM | > 100 µM | > 100 µM | > 88.7 µM | > 100 µM | > 100 µM | > 100 µM | > 100 µM | > 100 µM | > 100 µM | > 100 µM | > 100 µM | > 100 µM | > 100 µM | > 100 µM | > 67.3 µM | > 100 µM | – | –
11 | c1ccc2sc(C3(N4CCCCC4)CCCCCC3)cc2c1 | 37.2 µM | 52.7 µM | 43.3 µM | 51.8 µM | 60.9 µM | 55.2 µM | 41.4 µM | 39.4 µM | 60.8 µM | 42.1 µM | 27.9 µM | 53.9 µM | 31 µM | 80.9 µM | 33.7 µM | 11.4 µM | 28.7 µM | – | –
12 | CN(C)CCNC(=O)c1cccc2nc3cccc(F)c3nc12 | 8.97 µM | 11.4 µM | 5.17 µM | 3.63 µM | 8.55 µM | 2.92 µM | 5.48 µM | > 35 µM | 4.83 µM | 6.77 µM | 4.31 µM | 6.35 µM | 6.61 µM | 2.85 µM | 3.21 µM | 6.39 µM | 5.65 µM | – | –
13 | CCOC(=O)c1cccc([N+](=O)[O-])c1N | > 100 µM | > 100 µM | > 100 µM | > 100 µM | > 100 µM | > 100 µM | > 100 µM | > 100 µM | > 100 µM | > 100 µM | > 100 µM | > 100 µM | > 100 µM | > 100 µM | > 100 µM | > 100 µM | > 100 µM | – | –
14 | CC1(C)CN=C(Nc2ccc(Cl)cc2)S1 | > 100 µM | > 100 µM | > 100 µM | > 100 µM | > 100 µM | > 100 µM | > 100 µM | > 100 µM | > 100 µM | > 100 µM | > 100 µM | > 100 µM | > 100 µM | > 100 µM | > 100 µM | > 100 µM | > 100 µM | – | –
15 | Nc1nc(NNc2ccc(Cl)c(Cl)c2)cc(=O)[nH]1 | 59.5 µM | 82.5 µM | > 100 µM | 79.8 µM | > 100 µM | 74.1 µM | > 100 µM | > 100 µM | > 100 µM | > 100 µM | 44.7 µM | > 100 µM | 68.3 µM | > 100 µM | > 100 µM | 64.4 µM | > 100 µM | – | –
16 | COc1cc2c(cc1OC)C1(c3ccccc3)CN(C2)Cc2cc(OC)c(OC)cc21 | > 100 µM | 80.1 µM | 68.3 µM | > 100 µM | > 100 µM | 54.8 µM | > 100 µM | > 100 µM | > 100 µM | 53.8 µM | 50.1 µM | > 100 µM | 54.6 µM | > 100 µM | 91.4 µM | 63.8 µM | 80.2 µM | – | –
17 | CC1OC(OC2C(O)COC(OC3C(C)OC(OC4C(OC(=O)[C@]56CCC(C)(C)C[C@@H]5C5=CCC7[C@@]8(C)C[C@H](O)[C@H](OC9OC(CO)C(O)C(OC%10OC(CO)C(O)C(O)C%10O)C9O)[C@@](C)(CO)[C@@H]8CC[C@@]7(C)[C@]5(C)CC6)OCC(O)C4O)C(O)C3OC3OCC(O)C(O)C3O)C2O)C(O)C(O)C1O (stereo not given in full) | 27.2 µM | 25.8 µM | 10.4 µM | 31.1 µM | 20.3 µM | 7.72 µM | 3.87 µM | 20.3 µM | 9.92 µM | 8.87 µM | 4.44 µM | 29.9 µM | 20.1 µM | 4.29 µM | 25.1 µM | 15 µM | 76.8 µM | – | –
18 | CC1=CCC[C@@H]2[C@@](C)(Cc3cc(O)ccc3O)[C@H](C)CC[C@@]12C | 15.3 µM | 13.1 µM | 14.1 µM | 15.2 µM | 22.1 µM | 19.5 µM | 27 µM | 21.5 µM | 12.8 µM | 30.2 µM | 22.5 µM | 33.1 µM | 15.9 µM | 17.6 µM | 39.3 µM | 6.6 µM | 21.7 µM | – | –
19 | CC1C/C(=N\N(C)C)C(C#N)(C#N)C1(C#N)C#N (stereo not given) | 33.9 µM | 22.1 µM | 43.1 µM | 11.6 µM | 39.4 µM | 37.4 µM | 34.4 µM | > 70.6 µM | 30.3 µM | 1.32 µM | 31.5 µM | 13.7 µM | 40.1 µM | 69.5 µM | > 65.9 µM | > 100 µM | 25.5 µM | – | –
